Source: patent US20240189408A1, “COMPOSITIONS AND METHODS FOR REDUCING METHANE EMISSIONS IN RUMINANT POPULATIONS” (Arkea Bio Corp., priority 2022, published 2024)
Read-outs that look alike come from different tables or passages of the source.

Legend:
[1] = 3-NOP to adsorbent ratio study; type: physicochemical; settings: 24 hr, HPLC
Procedure: Optimal loading of 3-NOP onto adsorbents was determined by varying ratios of 3-NOP to adsorbent. 3-NOP and adsorbent were speed mixed at 2000 rpm for 1 min at the following ratios by weight: 1:1.5, 1:2, 1:2.5. The adsorbed 3-NOP powder mixture was then placed in distilled water at 1% 3-NOP loading. The solution was allowed to equilibrate for 24 hr and then an aliquot was taken for HPLC to determine the reduction in 3-NOP concentration.

rumen methanogens = settings: cited from earlier work
[2] = test system: methane production in ruminants; settings: cited from earlier work
[3] = LNP size and polydispersity by DLS (Malvern Panalytical); type: physicochemical; settings: mRNA LNPs of Table 18; for PDI: LNP polydispersity; for Z-avg.: LNP size
Procedure: (§1) To prepare lipid nanoparticles (LNPs), the mRNA stocks were thawed on ice. Nucleic acid concentrations were validated by absorbance at 260 nm using a NanoDrop. The mRNAs were then diluted to a final concentration of 0.35 mg/mL mRNA in Precision Nanosystem's dilution buffer. 10 mL of the dilute mRNAs were loaded into separate Luer lock syringes and all bubbles were removed by gentle tapping. A NanoAssemblr Ignite NxGen Cartridge was loaded into the cartridge slot of the Ignite instrument (FIG. 8A, 801) and one mRNA syringe was attached to the aqueous inlet of the cartridge. 3.3 mL of Genvoy-ILM reagent was loaded into a separate Luer lock syringes and all bubbles were removed by gentle tapping. The Genvoy-ILM syringe was then attached to the organic inlet of the cartridge. LNPs were then generated and collected into a 15 mL conical tube. The process was repeated for the remaining two mRNAs and for a buffer only LNP control (empty). Immediately after LNPs were generated, the samples were loaded into 10K dialysis cartridges, submerged into 1×DPBS (Ca^2+ and Mg^2+-free) to reduce the ethanol concentration to <0.5%. After dialysis the LNPs were recovered from the dialysis cartridges and sterile filtered at 0.2 um. Size and polydispersity (FIG. 8A, 802) were measured using a Malvern Panalytical DLS by diluting 40 uL of LNPs into 360 uL of 1×DPBS. […] Encapsulation efficiency was measured using a RiboGreen assay following Precision Nanosystems recommended protocol using a BioTek Synergy H1 Plate Reader. The resultant encapsulation efficiencies are shown in Table 14, with an average of ˜85%.
(§2) To prepare lipid nanoparticles (LNPs), the mRNA stocks were thawed on ice. Nucleic acid concentrations were validated by absorbance at 260 nm using a NanoDrop. The mRNAs were then diluted to a final concentration of 0.35 mg/mL mRNA in Precision Nanosystem's dilution buffer. 10 mL of the dilute mRNAs were loaded into separate Luer lock syringes and all bubbles were removed by gentle tapping. A NanoAssemblr Ignite NxGen Cartridge was loaded into the cartridge slot of the Ignite instrument and one mRNA syringe was attached to the aqueous inlet of the cartridge. 3.3 mL of Genvoy-ILM reagent was loaded into a separate Luer lock syringes and all bubbles were removed by gentle tapping. The Genvoy-LM syringe was then attached to the organic inlet of the cartridge. LNPs were then generated and collected into a 15 mL conical tube. The process was repeated for the remaining mRNAs and for a buffer only LNP control (empty). Immediately after LNPs were generated, the samples were loaded into 10K dialysis cartridges, submerged into Ix DPBS (Ca^2+ and Mg^2+-free) to reduce the ethanol concentration to <0.5%. After dialysis the LNPs were recovered from the dialysis cartridges and sterile filtered at 0.2 um. Size and polydispersity (FIG. 12 and FIG. 13) were measured using a Malvern Panalytical DLS by diluting 40 uL of LNPs into 360 uL of 1×DPBS. […] Encapsulation efficiency was measured using a RiboGreen assay following Precision Nanosystems recommended protocol using a BioTek Synergy H1 Plate Reader. The resultant encapsulation efficiencies are shown in Table 18, with an average of ˜60%.
(§3) To prepare lipid nanoparticles (LNPs), the mRNA stocks are thawed on ice. Nucleic acid concentrations are validated by absorbance at 260 nm using a NanoDrop. The mRNAs are then diluted to a final concentration of 0.35 mg/mL mRNA in Precision Nanosystem's dilution buffer. 10 mL of the dilute mRNAs are loaded into separate Luer lock syringes and all bubbles are removed by gentle tapping. A NanoAssemblr Ignite NxGen Cartridge is loaded into the cartridge slot of the Ignite instrument and one mRNA syringe is attached to the aqueous inlet of the cartridge. 3.3 mL of Genvoy-ILM reagent is loaded into a separate Luer lock syringes and all bubbles are removed by gentle tapping. The Genvoy-ILM syringe is then attached to the organic inlet of the cartridge. […]

[4] = LNP encapsulation efficiency, RiboGreen assay; type: physicochemical; settings: mRNA LNPs of Table 18
Procedure: as §1, §2, §3

[5] = 3-NOP:Adsorbent 1:1.5, distilled water at 1% 3-NOP loading
[6] = 3-NOP:Adsorbent 1:2, distilled water at 1% 3-NOP loading
[7] = 3-NOP:Adsorbent 1:2.5, distilled water at 1% 3-NOP loading
[8] = beef cattle, fed at […] of DM intake

For N=C(N)NCCC[C@H](N)C(=O)O [Arginine], the “Average Integrated Area of 3-NOP in solution” value (“Average Integrated Area” for short) [1, 5] was 2406.0, the “Average Integrated Area” value [1, 6] was 2372.8 and the “Average Integrated Area” value [1, 7] was 2435.2.

For CC(CO)[N+](=O)[O-] (stereo not drawn) [2-nitropropanol], the “lowering of CH4 production” value (rumen methanogens; steers) is listed as 37% and the “Addition amount; maximum methane suppression amount” value (“Addition amount” below) ([2]; 10 mmol/L) is listed as 41.7% (NPOH).

For ClC(Cl)Cl [chloroform], the “duration of substantial inhibition of methanogenesis” value (rumen methanogens; drenching to cattle) is given as “up to 32 days”.

For O=C(O)/C=C/c1ccc(O)cc1 [p-coumaric acid], the “Addition amount” value ([2]; 12 mM) is given as “p-coumaric acid; 28.33%”.

For O=[N+]([O-])O [Nitrate], the “Addition amount” value ([2]; 5 mM (Liu et al., 2017)) is given as 5 mM 43.26%, the “Addition amount” value ([2]; 5 mmol/L (Wu et al., 2019)) is given as 5 mmol/L; 32.92% and the “Addition amount” value ([2]; 20 mg/g dry matter (Alvarez-Hess et al., 2019)) is given as 20 mg/g dry matter; 21%.

In the case of ClCBr [BCM, bromochloromethane], the “toxicity or residues in meat” value (rumen methanogens; steers fed grain-based diets) is listed as “no signs of toxicity or residues in meat”.

For O=C(O)CC(O)C(=O)O (stereo not drawn) [Malate], the “decrease of CH4 production” value (rumen methanogens; [8]) is given as 16% and the “reduction of CH4 per unit of DM intake” value (rumen methanogens; [8]) is given as 9%.

In the case of CC[C@@]1([C@@H]2O[C@@H]([C@H]3O[C@@](O)(CO)[C@H](C)C[C@@H]3C)C[C@@H]2C)CC[C@H]([C@]2(C)CC[C@]3(C[C@H](O)[C@@H](C)[C@@H]([C@@H](C)[C@@H](OC)[C@H](C)C(=O)O)O3)O2)O1 [monensin], the CH4 production (rumen methanogens; tropical cattle, 60 mg/day/cow) is given as “did not lower CH4 production”, the “decrease of CH4 production” value (rumen methanogens; tropical cattle, 250 mg/day/cow, DM intake lowered) is given as “about 30%” and the CH4 suppression ([2]; 10-15 ppm) is given as “no CH4 suppression was observed”. For the same molecule, the “lowering of CH4 production (g/kg DM intake)” value ([2]; fed at 24-35 mg/kg diet) was “up to 10%”.

For O=[N+]([O-])CCO [2-nitroethanol], the “Addition amount” value ([2]; 10 mmol/L) is given as 96.7% (NEOH),.

For N[C@@H](CCC(=O)O)C(=O)O [Glutamic acid], the “Average Integrated Area” value [1, 5] was 2445.9, the “Average Integrated Area” value [1, 6] was 2452.5 and the “Average Integrated Area” value [1, 7] was 2446.3.

For O=C(O)/C=C/c1ccc(O)c(O)c1 [Caffeic acid], the “Addition amount” value ([2]; 12 mM) is given as 12 mM, Caffeic acid; 37.58%;.

For Oc1ccc(C=Cc2cc(O)cc(O)c2)cc1 [resveratrol], the “Addition amount” value ([2]; 25 mg, high-concentrate diets) is listed as “high-concentrate diets; 41%” and the “Addition amount” value ([2]; 25 mg, high-forage diets) is listed as 25 mg, high-forage diets; 60%;.

B1: ARK001: mRNA: SP + WP_004031278.1 (Methanobacterium formicicum) + TM/C; SEQ ID NO: 16676 (nucleic acid)
chain: ATGTTCGTGTTCCTCGTGCTCCTGCCCCTCGTCTCCAGCCAGTGCGTGTACCTCATGACACTGAGCCTGCCAGGGTTCGCACATCCCTTCGCACTCCCCCCCTGGTACATCTGGCTGGGCTTCATCGCAGGACTGATCGCCATCGTCATGGTCACCATAATGCTCTGTTGCATGACCTCCTGCTGTAGCTGCCTGAAAGGCTGTTGCAGCTGCGGGAGCTGCTGCAAATTCGACGAAGACGATAGCGAACCTGTGCTCAAAGGGGTGAAGTTGCATTACACATAGTGA
modifications: listed as DNA
B1 showed a PDI [3] of 0.086, a Z-avg. [3] of 78.82 nm·days and an Encapsulation efficiency [4] of 51%.

B2: ARK002: mRNA: SP + WP_012956721.1 (Methanobrevibacter ruminantium) + TM/C; SEQ ID NO: 16677 (nucleic acid)
chain: ATGTTCGTGTTCCTCGTGCTCCTGCCCCTCGTCTCCAGCCAGTGCGTGTACCTCATGACACTCCCCCTGGACGGACTCGGGCACCCCTTCCCCCTGCCACCCTGGTACATCTGGCTGGGCTTCATCGCAGGACTGATCGCCATCGTCATGGTCACCATAATGCTCTGTTGCATGACCTCCTGCTGTAGCTGCCTGAAAGGCTGTTGCAGCTGCGGGAGCTGCTGCAAATTCGACGAAGACGATAGCGAACCTGTGCTCAAAGGGGTGAAGTTGCATTACACATAGTGA
modifications: listed as DNA
Molecule B2 has a PDI [3] of 0.108, a Z-avg. [3] of 78.82 nm·days and an Encapsulation efficiency [4] of 51%.

B3: ARK013: mRNA: SP + mru0143 + STOP; SEQ ID NO: 16687 (nucleic acid)
chain: ATGTTCGTGTTCCTCGTGCTCCTGCCCCTCGTCTCCAGCCAGTGCGTGTACCTCATGACACTCCCCCTGGACGGACTCGGGCACCCCTTCCCCCTGCCATGA
modifications: listed as DNA, chemistry not fully specified
Molecule B3 has a PDI [3] of 0.1841, a Z-avg. [3] of 78.82 nm·days and an Encapsulation efficiency [4] of 60%.

B4: ARK012: mRNA: SP + WP_012956721.1 + STOP; SEQ ID NO: 16686 (nucleic acid)
chain: ATGTTCGTGTTCCTCGTGCTCCTGCCCCTCGTCTCCAGCCAGTGCGTGGGGTCCATAGGGGCTGCTTCTATGGAGTTCTGTTTTGATGTTTTCAAGGAACTGAAGGTTCACCATGCTAACGAGAACATCTTTTACTGTCCAATAGCCATCATGAGTGCGCTTGCTATGGTTTATTTGGGTGCAAAAGATTCTACTCGCACTCAGATTAATAAGGTCGTTAGATTCGACAAGCTTCCAGGGTTTGGAGACAGTATTGAGGCCCAATGTGGAACGTCAGTCAACGTCCATTCTTCTCTGCGGGACATTCTCAACCAAATAACGAAGCCAAACGACGTGTATTCCTTCTCACTCGCGTCACGGCTGTATGCTGAAGAAAGGTATCCTATCTTGCCAGAATATCTCCAGTGCGTCAAGGAGTTGTATCGAGGCGGACTGGAACCGATCAACTTTCAGACTGCAGCCGACCAGGCCCGCGAACTGATCAACAGCTGGGTCGAGTCTCAGACCAATGGGATCATACGCAATGTGTTGCAACCGAGTAGTGTCGACTCTCAGACGGCTATGGTCTTGGTGAACGCTATAGTCTTCAAAGGTCTGTGGGAGAAGACCTTCAAGGATGAAGACACACAAGCGATGCCATTCAGAGTCACCGAACAAGAAAGCAAACCCGTCCAAATGATGTACCAAATTGGGCTTTTTCGGGTGGCCTCTATGGCCTCTGAGAAAATGAAAATATTGGAACTGCCCTTCGCCAGCGGCACAATGAGTATGTTGGTCCTTCTTCCAGATGAAGTCTCAGGTCTCGAACAGCTTGAGTCTATCATTAACTTTGAGAAACTCACTGAATGGACTTCTTCCAATGTGATGGAAGAACGAAAAATCAAAGTCTACCTGCCCCGAATGAAGATGGAAGAGAAATATAATTTGACATCAGTTCTGATGGCCATGGGAATCACAGACGTGTTTTCATCCTCTGCGAATCTGTCTGGCATATCTTCCGCAGAATCTCTCAAGATCAGTCAAGCCGTCCACGCGGCCCATGCTGAGATAAATGAGGCGGGCAGAGAGGTGGTGGGGTCCGCCGAAGCTGGAGTCGACGCAGCTTCTGTCAGTGAAGAATTTAGGGCCGATCATCCTTTCCTGTTCTGCATAAAGCACATAGCTACGAACGCTGTGCTTTTCTTTGGCAGATGCGTTTCTCCACCCTGGTACATCTGGCTGGGCTTCATCGCAGGACTGATCGCCATCGTCATGGTCACCATAATGCTCTGTTGCATGACCTCCTGCTGTAGCTGCCTGAAAGGCTGTTGCAGCTGCGGGAGCTGCTGCAAATTCGACGAAGACGATAGCGAACCTGTGCTCAAAGGGGTGAAGTTGCATTACACATAGTGA
modifications: listed as DNA
Work on B4 yielded a PDI [3] of 0.100, a Z-avg. [3] of 78.82 nm·days and an Encapsulation efficiency [4] of 49%.
